Data published in US10844102B2, “Peptides, compositions, and methods for stimulating subcutaneous adipogenesis” (The Regents of the University of California, priority 2014, dated 2020).
Where two headings read alike, the source gives them in different places.

Experiments:
[1] = test system: adipogenesis; test: Adipogenic activity of peptides and peptide fragments, assay not specified; assay type: cell-based
Method: In the second approach, a series of truncations and alanine mutagenesis on peptide B were performed in order to identify the smallest active sequence. Fragments of peptide B were prepared and assayed for adipogenesis. First, fragments corresponding to the two halves of peptide B were prepared (KLKDENS (SEQ ID NO: 8) and SQLKSEVSK (SEQ ID NO: 13)).

[2] = test system: pre-adipocyte stem cells; test: Adipogenic effects in pre-adipocyte stem cells in culture; assay type: cell-based
[3] = test system: dermis of aged rats; test: Rat dermal skin model of adipogenesis (injection into the dermis of aged rats); assay type: in vivo; details: for adipogenic effects in rat skin: injected into the dermis of aged rats / rat skin
[4] = test system: adipogenesis in vivo; test: Adipogenesis in vivo, model not specified
[5] = Hyaluronan binding (random phage library screen); details: unbiased screen of 15-mer random phage libraries
Method: Two approaches were used to identify additional adipogenic peptides and to identify the key adipogenic sequences. […] Thus, in the first approach, an unbiased screen was performed to identify hyaluronan-binding peptides using 15-mer random phage libraries. Peptide sequences identified in this screen were sorted for: (a) their alignment to the HA binding region of RHAMM, and (b) their lack of alignment to the HA binding region of CD44.

[6] = test system: adipogenesis; details: earlier reports, WO 2014/082042 and background; cited from earlier work
[7] = earlier reports, background and U.S. Pat. No. 6,271,344; cited from earlier work
[8] = test system: mammary fat pads of aged female rats; test: In vivo adipogenesis in mammary fat pads of aged female rats (microCT); set-up: species or system rat; details: eight-month-old female rats, 100 μg peptide in 100 μl collagen gel, 7 days, versus collagen only
Method: Peptides were also tested for their ability to stimulate adipogenesis in mammary fat pads of aged (8 month old) female rats in vivo. Mammary fat pads are rich in adipocyte progenitor cells.
Eight-month-old female Sprague Dawley rats (retired breeders) were injected with 100 μl collagen gel (Vitrogen) containing 100 μg peptide into the fourth right mammary fat pad, as depicted in FIG. 10. […] The collagen and peptides were injected at the top of the ROI nearest the nipple. The collagen and peptide diffuse into the fat pad following injection and active peptides target RHAMM-positive progenitor cells present in the fat pad. Collagen alone was injected into the fourth left mammary fat pad as a negative control.
Following injection of the collagen and peptide or collagen alone, animals were maintained on rat chow and water for 7 days and then euthanized. Micro-computed tomography (microCT) imaging of the […] was performed on animals using a Locus Ultra scanner (GE Healthcare, London, ON, Canada). The animals were imaged ex vivo with an X-ray tube voltage of 80 kV and a tube current of 55 mA. Nine hundred projections of data were acquired at an angular increment of 0.4 degrees around the rat in an exposure time of 16 ms. The data were then reconstructed into a 3D volume image with a voxel size of 154 μm. The subcutaneous mammary fat measured in 10×5×3 mm rectangular area (the region of interest (ROI)) below the nipple, avoiding measurement of underlying visceral fat (see the region labeled “fat pad” in FIG. 11). The amount of fat in the ROI was calculated as mass (mg) per ROI.

[9] = test system: nude guinea pig; test: Nude guinea pig model of adipogenesis; details: in vivo
[10] = test system: bone marrow mesenchymal stem cells; test: Adipogenesis in mesenchymal stem cells or papillary fibroblasts, replacement of insulin; assay type: cell-based; details: depending upon the screening assay used
Method: For example, in bone marrow mesenchymal stem cells, a maximum adipogenic effect was obtained at 1-5 μg of peptide B (SEQ ID NO: 2), depending upon the screening assay used.

Sequence	adipogenesis in tissue culture ([1]; tissue culture)	adipogenic effects in pre-adipocyte stem cells in culture [2]	adipogenic effects in rat skin [3]	adipogenesis in vivo [4]	binding to hyaluronan (HA) [5]	adipogenic activity [6]	binding to hyaluronan (HA) [7]	adipogenesis in vivo in mammary fat pads [8]	adipogenic activity ([1]; assay not specified)	fat accumulation ([3]; 25-50 μg of peptide per injection site, rat dermal skin model)	promoting adipogenesis in a nude guinea pig model [9]	amount of peptide giving a maximum adipogenic effect [10]
STMMSRSHKTRSHHV [peptide P15-1]	promotes adipogenesis	adipogenic effects	adipogenic effects	promotes adipogenesis	hyaluronan binding peptide	is adipogenic	bind to hyaluronan					
KLKDENSQLKSEVSK (listed as Homo sapiens) [peptide B]		adipogenic effects	adipogenic effects			strongly adipogenic		mammary fat pad enlargement	adipogenic activity	induced significant fat accumulation	effective in promoting adipogenesis	1 to 5 µg
